Source: ChEMBL document CHEMBL1201862, “PubChem BioAssay data set” (2004)
Activity calls are given as the source filed them.

Key:
[1] = molecular target: Nuclear receptor subfamily 0 group B member 1 (Homo sapiens, UniProt P51843); type: functional, cell-based;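 note: HEK293T cells transfected with SF-1 and DAX-1 plus StAR promoter luciferase reporter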
cells = type: functional, cell-based
[2] = molecular target: DNA dC->dU-editing enzyme APOBEC-3G (Homo sapiens, UniProt Q9HC16); experiment: Dose Response confirmation of small molecule APOBEC3G DNA Deaminase Inhibitors via a fluorescence-based single-stranded DNA deaminase assay. [Related pubchem assays (depositor defined):AID493012, AID493028]; type: functional
Large T antigen = Large T antigen (Simian virus 40, UniProt P03070); type: functional, Betapolyomavirus macacae;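 note: Confirmatory-stage PubChem screen for compounds that inhibit SV40 T antigen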
[3] = molecular target: DNA dC->dU-editing enzyme APOBEC-3A (Homo sapiens, UniProt P31941); experiment: APOBEC3A DNA deaminase inhibitors, dose response, biochemical (AID 504722); type: functional
[4] = molecular target: Mitochondrial peptide methionine sulfoxide reductase (Bos taurus, UniProt P54149); experiment: Absorbance-based biochemical high throughput dose response assay for activators of Methionine sulfoxide reductase A (MsrA).; type: functional
[5] = molecular target: Glucose-6-phosphate 1-dehydrogenase (Homo sapiens, UniProt P11413); experiment: human G6PD enzyme inhibitors, dose response, selectivity assay for P. falciparum G6PD inhibitor project, biochemical, fluorescence (AID 504792); type: functional
[6] = molecular target: T1, Rac GTPase-activating protein 1 (Homo sapiens, UniProt Q9H0H5); experiment: MgcRacGAP GTPase-activating activity inhibitors, confirmation, biochemical, ADP Hunter fluorescence, primary and confirmatory (AID 624330); type: functional
T1 sequence (Q9H0H5 whole entry): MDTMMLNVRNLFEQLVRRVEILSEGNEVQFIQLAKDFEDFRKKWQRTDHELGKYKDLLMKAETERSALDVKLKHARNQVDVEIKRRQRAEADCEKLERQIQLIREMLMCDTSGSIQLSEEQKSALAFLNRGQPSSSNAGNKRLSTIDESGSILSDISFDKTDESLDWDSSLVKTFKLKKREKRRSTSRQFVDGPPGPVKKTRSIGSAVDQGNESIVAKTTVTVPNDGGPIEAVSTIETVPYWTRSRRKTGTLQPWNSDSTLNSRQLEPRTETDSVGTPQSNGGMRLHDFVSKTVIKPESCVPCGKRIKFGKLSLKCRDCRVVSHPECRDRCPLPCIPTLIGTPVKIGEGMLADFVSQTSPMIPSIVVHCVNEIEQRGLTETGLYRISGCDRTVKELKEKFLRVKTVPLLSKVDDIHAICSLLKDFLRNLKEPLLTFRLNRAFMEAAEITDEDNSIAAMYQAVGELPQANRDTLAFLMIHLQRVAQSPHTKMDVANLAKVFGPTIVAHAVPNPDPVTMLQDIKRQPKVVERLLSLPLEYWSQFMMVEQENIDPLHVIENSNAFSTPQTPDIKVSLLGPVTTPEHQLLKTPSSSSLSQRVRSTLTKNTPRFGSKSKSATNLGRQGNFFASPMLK

[7] = molecular target: T2, Sentrin-specific protease 1 (Homo sapiens, UniProt Q9P0U3); experiment: potency of human SENP1 inhibitors, dose response, biochemical, kinetic FRET (AID 651697); type: functional; details: read-out: IC50_Mean
T2 sequence (Q9P0U3 whole entry): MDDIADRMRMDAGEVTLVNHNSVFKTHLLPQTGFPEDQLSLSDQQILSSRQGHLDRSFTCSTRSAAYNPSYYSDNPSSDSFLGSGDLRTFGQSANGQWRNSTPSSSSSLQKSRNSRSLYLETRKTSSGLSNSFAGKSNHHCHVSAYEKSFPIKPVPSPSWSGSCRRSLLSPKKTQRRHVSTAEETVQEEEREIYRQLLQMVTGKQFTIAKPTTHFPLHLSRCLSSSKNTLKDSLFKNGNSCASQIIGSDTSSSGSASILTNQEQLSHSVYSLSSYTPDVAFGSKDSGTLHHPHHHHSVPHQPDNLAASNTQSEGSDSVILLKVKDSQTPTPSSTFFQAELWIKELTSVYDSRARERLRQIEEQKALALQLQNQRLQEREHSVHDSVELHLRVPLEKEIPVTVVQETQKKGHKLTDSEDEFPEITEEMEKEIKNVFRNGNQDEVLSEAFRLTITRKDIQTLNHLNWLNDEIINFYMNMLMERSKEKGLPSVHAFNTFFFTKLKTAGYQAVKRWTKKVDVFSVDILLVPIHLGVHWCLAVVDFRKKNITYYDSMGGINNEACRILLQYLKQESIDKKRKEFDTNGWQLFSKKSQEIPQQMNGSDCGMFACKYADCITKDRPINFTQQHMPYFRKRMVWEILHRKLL

[8] = molecular target: T2, Sentrin-specific protease 1; experiment: Dose response confirmation of small molecule inhibitors of the catalytic domain of the SUMO protease, SENP1 in a FRET assay.; type: functional; details: read-out: IC50_Mean
[9] = miR-122 activators in hepatoma reporter cells, dose response, cell-based, Huh7 psiCHECK-miR122, Renilla luciferase, cherry-picked (AID 651956); type: functional;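 note: huh7 hepatoma cells stably carrying a psiCHECK-2 miR-122 sensor plasmid; renilla luciferase signal reporting endogenous miR-122 activity after 48 h compound exposure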
BJ [10] = experiment: cytotoxicity toward Ras-transformed BJeLR fibroblasts, dose response, cell-based, alamar blue fluorescence, cherrypicked samples (AID 2631); type: functional; details: Homo sapiens;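 note: confirmatory dose-response assay in RAS-dependent BJ fibroblasts engineered with TERT, LT and ST, with cytotoxicity read by fluorescence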
BJ [11] = experiment: cytotoxicity toward BJ-TERT fibroblasts, dose response, cell-based, RAS-independent, luminescence (AID 1933); type: functional; details: Homo sapiens
[12] = Luminescence Cell-Based Dose Response HTS to Identify Inhibitors of 5'UTR Stem-Loop Driven Prion Protein mRNA Translation in H4 Neuroglioblastoma Cells. [Related pubchem assays: 1827 (Project Summary), 1813 (Primary HTS)]; type: functional
[13] = inhibitors of SNCA 5'UTR-driven reporter translation, confirmation, H4 neuroglioma cells, luminescence (AID 1988); type: functional, cell-based
[14] = cytotoxicity toward DRD oncogenic fibroblasts, dose response, cell-based, non-viral oncogenic, luminescence (AID 1934); type: functional; details: Homo sapiens
INS1 = experiment: beta cell apoptosis inhibitors, cytokine rescue, dose response, luminescence, retest (AID 449756); type: functional, cell-based; details: Rattus norvegicus;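 note: cell death triggered by IL-1 beta plus TNF-alpha plus IFN-gamma mixture; protective hits raise ATP signal compared with cytokine alone wells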
BJ [15] = experiment: cytotoxicity toward BJ-TERT-LT-ST fibroblasts, dose response, cell-based, RAS-independent, luminescence (AID 1935); type: functional; details: Homo sapiens;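 note: BJ fibroblasts immortalized with TERT plus LT and ST oncogenes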
[16] = cytotoxicity in HEK-293T cells, dose response, cytotoxicity control for BCR NF-kB inhibitor project, luminescence, B-cell screen hits (AID 489021); type: functional, cell-based;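 note: HEK-293T cells carrying an NF-kB luciferase reporter; cells exposed to compound for about 14 hours before viability readout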
[17] = inhibitors of firefly luciferase expression or activity, dose response, H4 neuroglioma cells, luminescence (AID 1990); type: functional, cell-based
BJ [18] = experiment: cells; type: functional, cell-based; details: Homo sapiens
[19] = Shn3 3'UTR reporter inhibitors, dose response, cell-based, Clone20 osteoblasts, firefly luciferase, cherry-picked (AID 624132); type: functional;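 note: firefly luciferase luminescence from reporter carrying the Shn3 3'UTR in osteoblasts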
Protein Wnt-3a = Protein Wnt-3a (Mus musculus, UniProt P27467); experiment: Wnt3a-driven reporter signaling inhibition, dose response, selectivity assay for Gli-SUFU antagonist project, Wnt-LIGHT cells, luminescence (AID 651570); type: functional; details: read-out: IC50_Mean;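 note: Wnt-LIGHT reporter cells stimulated with conditioned medium from Wnt3a-producing cells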
[20] = HepG2 cell cytotoxicity, dose response, cytotoxicity control for Shn3 inhibitor project, CellTiter-Glo, cherry-picked (AID 624134); type: functional, cell-based
[21] = molecular target: T3, Probable nicotinate-nucleotide adenylyltransferase (Staphylococcus aureus (strain N315), UniProt P65502); type: functional, Staphylococcus aureus subsp. aureus N315;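 for IC50 Mean: confirmatory dose-response retesting of NadD inhibitor hits first found in an ultra-high-throughput screen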
Streptococcus = experiment: Group A Streptococcus viability loss, dose response, counter-screen for streptokinase expression inhibitor project, luminescence, BacTiterGlo (AID 1915); type: functional, organism-based;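 note: potency for reduction of bacterial viability or growth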
[22] = system: Streptococcus sp. 'group A'; experiment: growth inhibition of control SK(-) GAS strain, dose response, counter-screen for streptokinase expression inhibitor project, luminescence, kanamycin, BacTiterGlo, confirmation (AID 1900); type: functional, organism-based
[23] = molecular target: T3, Probable nicotinate-nucleotide adenylyltransferase; type: functional, Staphylococcus aureus subsp. aureus N315; details: read-out: IC50_Mean
[24] = ADAM10 protease inhibitors, dose response, selectivity assay for ADAM17 exosite inhibitor project, biochemical, FRET peptide substrate, recombinant human ADAM10 (AID 743259);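 note: ADAM10 enzyme cleaving a FRET peptide substrate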
[25] = control 3'UTR Renilla luciferase suppression, dose response, counter-screen for Shn3 inhibitor project, cell-based, Clone20-Shn3RL, cherry-picked (AID 624133); type: functional
[26] = inhibitors of PGC1a acetylation in cells, dose response, cell-based, cherry-picked samples (AID 720514); type: functional;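 note: potency may reflect raised or lowered acetylation signal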
[27] = Fluorescence-based cell-based high throughput dose response assay for inhibitors of the interaction of nucleotide-binding oligomerization domain containing 2 (NOD2) and the receptor-interacting serine-threonine kinase 2 (RIPK2).; type: functional; details: Homo sapiens
Beta Lactamase = Beta Lactamase (Pseudomonas aeruginosa, UniProt Q932Y6); experiment: beta-lactamase reporter inhibitor potency, dose response, artefact control for NOD2-RIPK2 interaction inhibitor project, BLA reporter cells, FRET fluorescence (AID 651552); type: functional, cell-based
[28] = molecular target: Disintegrin and metalloproteinase domain-containing protein 17 (Homo sapiens, UniProt P78536); experiment: exosite inhibitors of ADAM17, dose response, biochemical (AID 743260)
[29] = ZM109 Env clade C HIV-1 fusion inhibitors, dose response, HeLa effector, CEM target cells, luciferase, cherry-pick (AID 652058); type: functional, cell-based
[30] = CEM21 lymphoblast cell cytotoxicity, dose response, cytotoxicity control for viral fusion inhibitor project, CellTiter-Glo luminescence, cherry-picked (AID 652042); type: functional, cell-based;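 note: potency for signal decrease meaning cytotoxicity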
[31] = off-target signal loss in HeLa-CEM21 co-culture – HeLa F-luc CTL cells, cherry-picked, counter-screen for HIV-1 Env fusion inhibitor project, dose response (AID 652040); type: functional, cell-based;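 note: potency for signal decrease marking cytotoxic or nonspecific inhibition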
[32] = inhibitors of clade B AD8 Env fusion, dose response, cell-based, cherry-pick (AID 652062); type: functional;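 note: luciferase signal from cell-cell fusion driven by HIV-1 clade B AD8 Env; potency is for inhibitors of fusion seen as a drop in luminescence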
[33] = inhibitors of HIV Env-driven cell fusion, dose response, cherry-pick (AID 652057); type: functional, cell-based
[34] = microbe, parasite or virus in culture; type: functional; details: Mycobacterium tuberculosis

Chain of Nuclear receptor subfamily 0 group B member 1 (P51843 whole entry): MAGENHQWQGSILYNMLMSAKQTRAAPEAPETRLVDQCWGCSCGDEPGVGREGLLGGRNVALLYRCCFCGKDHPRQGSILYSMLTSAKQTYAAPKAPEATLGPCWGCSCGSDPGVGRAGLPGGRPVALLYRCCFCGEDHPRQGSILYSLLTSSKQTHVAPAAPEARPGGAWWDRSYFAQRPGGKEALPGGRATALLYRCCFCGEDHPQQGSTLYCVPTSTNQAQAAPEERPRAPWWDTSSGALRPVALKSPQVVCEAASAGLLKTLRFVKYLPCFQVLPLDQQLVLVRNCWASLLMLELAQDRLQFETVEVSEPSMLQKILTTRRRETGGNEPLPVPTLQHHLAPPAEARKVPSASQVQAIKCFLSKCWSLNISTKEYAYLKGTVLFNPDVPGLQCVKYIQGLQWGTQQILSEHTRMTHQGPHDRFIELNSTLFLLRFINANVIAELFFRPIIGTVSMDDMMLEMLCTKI
Chain of Large T antigen (P03070 whole entry): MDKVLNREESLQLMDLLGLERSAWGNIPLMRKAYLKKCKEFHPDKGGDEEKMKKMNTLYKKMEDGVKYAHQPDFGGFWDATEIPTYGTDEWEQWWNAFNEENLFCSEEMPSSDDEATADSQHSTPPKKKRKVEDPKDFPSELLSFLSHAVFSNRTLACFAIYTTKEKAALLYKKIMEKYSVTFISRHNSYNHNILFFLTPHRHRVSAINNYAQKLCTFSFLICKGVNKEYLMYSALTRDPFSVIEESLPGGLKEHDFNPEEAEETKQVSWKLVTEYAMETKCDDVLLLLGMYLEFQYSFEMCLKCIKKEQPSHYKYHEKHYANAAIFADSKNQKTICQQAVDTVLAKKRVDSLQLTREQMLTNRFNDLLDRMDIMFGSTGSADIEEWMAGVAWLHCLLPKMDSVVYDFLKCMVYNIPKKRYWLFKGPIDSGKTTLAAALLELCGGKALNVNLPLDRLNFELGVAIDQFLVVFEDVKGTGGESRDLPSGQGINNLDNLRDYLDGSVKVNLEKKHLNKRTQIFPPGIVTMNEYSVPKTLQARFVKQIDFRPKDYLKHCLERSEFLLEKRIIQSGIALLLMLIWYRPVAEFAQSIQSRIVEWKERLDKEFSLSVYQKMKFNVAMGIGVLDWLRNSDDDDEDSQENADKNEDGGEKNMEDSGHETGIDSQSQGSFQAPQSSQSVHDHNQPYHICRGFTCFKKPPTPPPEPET
T3 sequence (P65502 whole entry): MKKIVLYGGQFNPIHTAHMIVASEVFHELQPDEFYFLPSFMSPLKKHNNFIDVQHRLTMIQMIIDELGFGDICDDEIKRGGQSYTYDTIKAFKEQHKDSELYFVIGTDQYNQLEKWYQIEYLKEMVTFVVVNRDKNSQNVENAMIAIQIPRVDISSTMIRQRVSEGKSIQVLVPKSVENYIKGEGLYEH
Chain of Disintegrin and metalloproteinase domain-containing protein 17 (P78536 whole entry, the tested form may be a part): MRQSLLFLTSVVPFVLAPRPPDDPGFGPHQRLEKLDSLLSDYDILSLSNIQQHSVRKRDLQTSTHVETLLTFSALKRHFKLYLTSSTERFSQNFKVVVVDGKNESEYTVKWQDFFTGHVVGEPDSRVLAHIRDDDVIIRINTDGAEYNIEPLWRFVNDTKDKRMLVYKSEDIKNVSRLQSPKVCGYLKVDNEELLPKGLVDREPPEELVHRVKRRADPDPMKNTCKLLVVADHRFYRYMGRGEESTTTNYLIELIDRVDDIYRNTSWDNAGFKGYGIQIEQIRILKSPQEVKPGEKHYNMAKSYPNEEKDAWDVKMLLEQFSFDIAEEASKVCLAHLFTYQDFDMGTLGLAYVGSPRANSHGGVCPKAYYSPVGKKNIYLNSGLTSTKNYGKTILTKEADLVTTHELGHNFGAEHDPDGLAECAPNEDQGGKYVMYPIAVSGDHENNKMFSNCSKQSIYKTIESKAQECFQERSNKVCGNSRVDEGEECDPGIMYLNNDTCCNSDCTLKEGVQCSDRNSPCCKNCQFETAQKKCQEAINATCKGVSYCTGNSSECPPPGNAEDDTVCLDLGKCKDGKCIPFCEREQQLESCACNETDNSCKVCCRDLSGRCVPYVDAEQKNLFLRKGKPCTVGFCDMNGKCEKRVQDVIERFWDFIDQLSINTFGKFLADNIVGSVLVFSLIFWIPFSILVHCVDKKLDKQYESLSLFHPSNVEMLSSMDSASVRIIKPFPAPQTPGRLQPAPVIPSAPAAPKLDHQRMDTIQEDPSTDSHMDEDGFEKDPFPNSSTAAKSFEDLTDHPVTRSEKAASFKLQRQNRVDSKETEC
Chain of Glucose-6-phosphate 1-dehydrogenase (P11413 whole entry): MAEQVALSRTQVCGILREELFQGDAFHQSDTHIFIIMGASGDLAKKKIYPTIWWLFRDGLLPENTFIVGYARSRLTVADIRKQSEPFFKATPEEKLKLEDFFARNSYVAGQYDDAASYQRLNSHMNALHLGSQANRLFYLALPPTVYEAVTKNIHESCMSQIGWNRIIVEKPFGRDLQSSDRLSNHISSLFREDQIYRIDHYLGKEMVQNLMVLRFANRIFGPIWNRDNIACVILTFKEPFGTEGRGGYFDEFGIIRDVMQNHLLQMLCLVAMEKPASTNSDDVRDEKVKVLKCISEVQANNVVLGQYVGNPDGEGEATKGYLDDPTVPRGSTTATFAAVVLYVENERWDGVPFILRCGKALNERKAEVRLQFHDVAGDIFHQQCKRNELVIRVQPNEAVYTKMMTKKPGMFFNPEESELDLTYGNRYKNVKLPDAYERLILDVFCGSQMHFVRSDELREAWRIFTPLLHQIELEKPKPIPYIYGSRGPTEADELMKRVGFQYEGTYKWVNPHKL
Chain of DNA dC->dU-editing enzyme APOBEC-3G (Q9HC16 whole entry): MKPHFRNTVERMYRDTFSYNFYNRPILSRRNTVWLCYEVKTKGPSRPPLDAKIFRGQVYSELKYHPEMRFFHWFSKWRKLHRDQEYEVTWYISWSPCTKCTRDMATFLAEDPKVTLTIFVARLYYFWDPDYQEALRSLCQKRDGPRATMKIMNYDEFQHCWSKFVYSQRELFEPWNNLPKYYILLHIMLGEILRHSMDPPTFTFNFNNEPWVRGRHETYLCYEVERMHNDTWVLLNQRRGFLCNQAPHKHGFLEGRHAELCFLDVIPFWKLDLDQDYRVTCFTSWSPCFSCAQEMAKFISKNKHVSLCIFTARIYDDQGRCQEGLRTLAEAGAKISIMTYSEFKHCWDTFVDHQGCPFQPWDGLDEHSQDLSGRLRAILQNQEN
Chain of Mitochondrial peptide methionine sulfoxide reductase (P54149 whole entry): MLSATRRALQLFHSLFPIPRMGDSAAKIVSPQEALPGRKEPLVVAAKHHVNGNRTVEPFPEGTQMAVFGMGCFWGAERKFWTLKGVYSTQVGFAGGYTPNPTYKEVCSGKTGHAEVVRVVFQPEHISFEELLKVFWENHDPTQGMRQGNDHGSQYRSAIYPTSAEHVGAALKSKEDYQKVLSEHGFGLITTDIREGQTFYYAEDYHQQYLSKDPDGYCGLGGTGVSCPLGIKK
Chain of Protein Wnt-3a (P27467 whole entry): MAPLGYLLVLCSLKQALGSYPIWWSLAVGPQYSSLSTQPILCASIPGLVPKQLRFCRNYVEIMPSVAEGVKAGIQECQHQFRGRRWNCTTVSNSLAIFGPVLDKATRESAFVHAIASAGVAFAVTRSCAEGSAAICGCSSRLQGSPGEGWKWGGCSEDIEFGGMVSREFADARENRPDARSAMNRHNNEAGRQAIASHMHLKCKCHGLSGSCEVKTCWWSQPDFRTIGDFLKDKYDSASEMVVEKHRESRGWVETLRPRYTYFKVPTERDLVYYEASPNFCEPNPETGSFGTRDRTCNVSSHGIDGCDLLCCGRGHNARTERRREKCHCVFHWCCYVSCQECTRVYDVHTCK
Chain of DNA dC->dU-editing enzyme APOBEC-3A (P31941 whole entry): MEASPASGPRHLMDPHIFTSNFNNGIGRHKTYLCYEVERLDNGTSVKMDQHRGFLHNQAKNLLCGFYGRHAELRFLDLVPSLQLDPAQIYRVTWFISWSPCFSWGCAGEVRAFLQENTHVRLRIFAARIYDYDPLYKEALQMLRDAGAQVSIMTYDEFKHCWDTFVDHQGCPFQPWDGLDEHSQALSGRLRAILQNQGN
Chain of Beta Lactamase (Q932Y6 whole entry, the tested form may be a part): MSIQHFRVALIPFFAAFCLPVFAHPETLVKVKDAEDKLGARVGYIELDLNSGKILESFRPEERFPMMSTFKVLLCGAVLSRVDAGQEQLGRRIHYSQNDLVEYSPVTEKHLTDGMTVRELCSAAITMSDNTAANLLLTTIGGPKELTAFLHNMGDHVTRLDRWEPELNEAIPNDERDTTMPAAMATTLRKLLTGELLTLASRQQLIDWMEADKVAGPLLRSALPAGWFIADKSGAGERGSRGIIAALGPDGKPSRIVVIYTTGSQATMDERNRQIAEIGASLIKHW

COc1ccccc1NC(CC(=O)c1ccccc1)C(=O)OCC(=O)c1ccc(Br)cc1 (stereo not drawn)
IC50 [1]: > 0.278 µM (active) | IC50 (cells): > 67.5 µM (inactive)

c1ccc(SSc2ccccn2)nc1
IC50 [2]: 3.88 µM (active) | IC50 (Large T antigen): > 100 µM (active) | IC50 [3]: > 100 µM (inactive) | EC50 [4]: > 104 µM (inactive) | IC50 [5]: > 80 µM (inactive)

CCOc1cc(/C=C2\SC(=O)N=C2N)ccc1O
IC50 (Large T antigen): 4.73 µM (active) | IC50 [6]: 13 µM (active) | IC50 [7]: 10.9 µM (active) | IC50 [8]: 18.2 µM (active)

COc1ccc(S(=O)(=O)Nc2cc(C)cc(C)n2)c2ccccc12
AC50 [9]: 13.4 µM (active)

CC1CC(C)CN(S(=O)(=O)c2ccc(C(=O)NCCCn3ccnc3)cc2)C1 (stereo not drawn)
EC50 (BJ [10]): 5.61 µM (active) | EC50 (BJ [11]): > 150 µM (not active) | EC50 [12]: 0.873 µM (active) | EC50 [13]: 0.163 µM (active) | EC50 [14]: 10 µM (inconclusive) | AC50 (INS1): 0.437 µM (active) | EC50 (BJ [15]): 4.2 µM (inconclusive) | IC50 [16]: > 80 µM (inactive) | EC50 [17]: 0.527 µM (active) | EC50 (BJ [18]): 5.76 µM (inconclusive)

O=[N+]([O-])c1ccc(C=NNc2ccccc2)cc1
IC50 [7]: 21.5 µM (inactive) | IC50 [8]: 7.2 µM (active)

COc1cc(NS(=O)(=O)c2ccc(C)cc2C)cc(OC)c1OC
AC50 [19]: 4.95 µM (active) | IC50 (Protein Wnt-3a): 1.38 µM (active) | AC50 [20]: 5.37 µM (active)

N=C1SC(c2ccccc2)C(=O)N1c1ncc(Cc2ccccc2Cl)s1 (stereo not drawn)
IC50 [21]: 4.35 µM (active) | EC50 (Streptococcus): 3.47 µM (active) | EC50 [22]: 0.249 µM (active) | IC50 [23]: 16 µM (active)

CC(OC(=O)CCCCCNC1=NS(=O)(=O)c2ccccc21)C(=O)Nc1cc(Cl)cc(Cl)c1 (stereo not drawn)
IC50 [24]: 50 µM (inactive)

COc1ccc(CC2NCC(O)C2OC(C)=O)cc1 (stereo not drawn)
AC50 [19]: < 0.26 µM (active) | AC50 [25]: 1.09 µM (active) | AC50 [26]: 0.308 µM (active) | IC50 [27]: 49.7 µM (inactive) | IC50 (Beta Lactamase): 49.7 µM (inactive)

CC(OC(=O)CCCCCN=C1NS(=O)(=O)c2ccccc21)C(=O)Nc1cc(Cl)cc(Cl)c1 (stereo not drawn)
IC50 [28]: > 69.5 µM (inactive)

CC1(C)Cc2ccccc2C(/C(=N\Nc2cccc(Cl)c2)C(N)=O)=N1
AC50 [29]: 2.69 µM (active) | AC50 [30]: 49.5 µM (active) | AC50 [31]: 35.5 µM (active) | AC50 [32]: 8.02 µM (active) | AC50 [33]: 2.68 µM (active)

COc1ccc(C(=O)CSc2nccn2C)c(OC)c1
IC50 [1]: > 67.5 µM (inactive) | IC50 (cells): > 67.5 µM (inactive)

O=C(Nc1ccccc1)C1=C[C@@H](C2CCCCC2)C[C@@H](OCc2ccc(CO)cc2)O1
IC50 [28]: > 69.5 µM (inactive) | CC50 [34]: > 40 µM (active) | IC50 [24]: 21.8 µM (inactive)
